No end group written: not given here.

One test concerns human pancreatic α cells. Put plainly: Fluorescence microscopy: binding of biotinylated homodimer CDR peptides to human pancreatic α cells. In kind it is cell-based. As to conditions: biotinylated homodimers; fluoresceinated antibiotin as second step reagent. As for the experimental part:
(§1) An N terminal cysteine was added to each of the hypervariable region sequences (CDR-L1-3 and CDR-H1-3, SEQ ID NOs:6 to 16) which were synthesised by Fmoc peptide synthesis and dimerised to form homodimers. Some of each of the homodimers was biotinylated; the biotinylated homodimers were then tested by fluorescence microscopy for their ability to bind to human pancreatic a cells (used as an indicator human tissue) by using fluoresceinated antibiotin as a second step reagent. […] The non-biotinylated homodimer peptides were then tested by ELISAs for their ability to bind to anti-TCR Vβ antibody and to cardiolipin as an indicator of phospholipids (Table 1).

A further test concerns anti-TCR Vβ antibody. The test can be described thus: ELISA binding to anti-TCR Vβ antibody. As to conditions: plate coated with homodimer peptide; for Optical density reading, ELISA, antigen α-TCRVβ antibody: tested against α-TCR Vβ, mean ± SD, three observations; for Ratio Test/Control: α-TCRVβ antibody vs PBS/culture medium control. As for the experimental part: as §1
The nature of test [1]: ELISA binding to cardiolipin as an indicator of phospholipids. As to conditions: for Ratio Test/Control: cardiolipin vs ethyl alcohol control; for Optical density reading, ELISA, antigen cardiolipin: plate coated with cardiolipin in ethyl alcohol, tested against antibody or homodimer peptide, mean ± SD, three observations. On the procedure:
as §1
(An ELISA detects its analyte on a solid surface through an enzyme-linked reagent.)

The nature of test [2]: Phase IIb randomised double blind trial in type 2 diabetics after stopping antidiabetic medication. Format: in vivo, human. As for the experimental part:
31 subjects (21 males and 10 females) with type 2 diabetes mellitus on one or more oral antidiabetic medication(s) were entered into a randomised double blind study of 16 weeks duration. At day 01 all antidiabetic medication was stopped. Patients were randomised to either the placebo group (group C) or one of 3 treatment groups described as Groups A, B or D. All groups received a total of 4 IM injections spaced one week apart starting from day 01. The placebo group (8 subjects) received 1.2 ml of saline containing 0.1% alhydrogel. Group A (7 subjects) received 1.51 mg of a peptide according to the invention (designated as NDX-71 herein) in 1.2 ml saline containing 0.1% alhydrogel. Group B (8 subjects) received 0.86 mg NDX-71 in 1.2 ml saline containing 0.1% alhydrogel. Group D (8 subjects) received a mixture of 3 peptides of the invention (0.92 mg NDX-71, 0.68 mg C80 and 0.71 mg F90) in 1.2 ml saline containing 0.1% alhydrogel. Placebo and study medications were visibly identical. The NDX-71 peptide used in this example was the B71 peptide used in Example 6. The C80 and F90 peptides used in this example were the C80 and F90 peptides used in Example 6.
At regular intervals throughout the study period patients underwent blood tests for clinical safety and glycaemic efficacy parameters. […] Clinical safety parameters in all groups were unchanged from baseline. There were no adverse events reported in the study attributable to the test substances.

Consider “CDR-H3: homodimer of CDR-H3 derived monomer peptides, each SEQ ID NO:10 (LRGLLPDY) plus an N terminal cysteine (SEQ ID NO:160) (chain 1 CLRGLLPDY; chain 2 CLRGLLPDY; cysteine pairing not given here; also: homodimer)”, for which, in the test with human pancreatic α cells, the “ability to bind to human pancreatic α cells” value (shortened to “ability to bind”) is recorded as “bound to the pancreatic α cells”. Besides, in the test on anti-TCR Vβ antibody, the “Optical density reading, ELISA, antigen α-TCRVβ antibody” value is 0.182 ± 0.009 and the “Ratio Test/Control” value amounted to 2.00. In test [1], the “Ratio Test/Control” value was 2.16 and the “Optical density reading, ELISA, antigen cardiolipin” value is recorded as 0.132 ± 0.009.

Regarding “CDR-L3 (QQYNSYPLT; Protein Light chain HV3)”, the “ability to bind” value in the test on human pancreatic α cells is recorded as “bound to the pancreatic α cells”. In the test on anti-TCR Vβ antibody, the “Optical density reading, ELISA, antigen α-TCRVβ antibody” value turned out to be 0.243 ± 0.008 and the “Ratio Test/Control” value is given as 1.74. For the same substance, in test [1], the “Ratio Test/Control” value came out at 2.23 and the “Optical density reading, ELISA, antigen cardiolipin” value was 0.254 ± 0.012.

On to “NDX-71: homodimer of CDR-H2 derived monomer peptides, each SEQ ID NO:8 (NIYPSDSYTNYNQKFKD) plus an N terminal cysteine (SEQ ID NO:159) (chain 1 CNIYPSDSYTNYNQKFKD; chain 2 CNIYPSDSYTNYNQKFKD; cysteine pairing not given here; also: homodimer)”, for which the “ability to bind” value in the test on human pancreatic α cells was “bound to the pancreatic α cells”. The “glycaemic control after cessation of antidiabetic medication” value in test [2] (1.51 mg dose) is “able to maintain good glycaemic control”. Also, in test [2] (1.51 mg vs 0.86 mg), the “dose dependence of effect” value is recorded as “dose response effect”. Also, the “HbA1c, treatment difference vs placebo (group C)” value in test [2] (21 male volunteers subset, high dose group A (1.51 mg), p<0.001) was “Statistically significant treatment differences”. Besides, in test [2] (21 male volunteers subset, high dose group A (1.51 mg), p=0.001), the “corrected fructosamine, treatment difference vs placebo (group C)” value is “Statistically significant treatment differences”. Also, in test [2] (21 male volunteers subset, high dose group A (1.51 mg), p=0.005), the “fasting glucose, treatment difference vs placebo (group C)” value is “Statistically significant treatment differences”. Moreover, the “mean HbA1c level” value in test [2] (baseline, high dose treatment group (1.51 mg NDX-71)) amounted to 6.3%; in test [2] (day 113, high dose treatment group (1.51 mg NDX-71)), 6.9%. In test [2] (high dose treatment group (1.51 mg NDX-71), p=0.02), the “HbA1c levels over time vs placebo group” value is “significantly different from the placebo group”. Further, the “glycaemic control compared with placebo” value in test [2] (lower dose of 0.86 mg) was “showed improvement as compared with placebo”. The “Optical density reading, ELISA, antigen α-TCRVβ antibody” value with anti-TCR Vβ antibody was 0.307 ± 0.018. Also, the results for the “Ratio Test/Control” value (in the test on anti-TCR Vβ antibody; in test [1]) were 1.83 and 2.40, respectively. Besides, the “Optical density reading, ELISA, antigen cardiolipin” value in test [1] was found to be 0.151 ± 0.020.

For the origin of these results see patent publication US9243062B2, “Peptides for treatment and diagnosis of autoimmune disease” (priority 2005, dated 2016).
